One test concerns soybeans. Description: Soybeans in a vegetation experiment in sandy loam (Example 19). The settings on record: for Growth height: 4 weeks; for response vs control in vivo at 3000 g/ha / response vs control in vivo at 6000 g/ha: control 100. Type of test: in vivo, soybean (Gieso variety). The method, then:
Soybean plants of the Gieso variety were grown in a neutral sandy loam. Fertilization took place at the time of sowing, with 0.5 g N as ammonium nitrate and 1.0 g P2 O5 as secondary potassium phosphate. […]
After 4 weeks, the treated plants were much shorter than the control, and looked more compact as a result of the different angle of the leaves. The prior art compound used for comparison purposes was 2,3,5-triiodobenzoic acid (T; U.S. Pat. No. 2,978,838).

The next test deals with grass or lawns. Description: Action on grass or lawns (Example 13). Type of test: in vivo. The settings on record: for First cutting, dry substance / First cutting, growth height: 19 days after treatment; for First cutting, dry substance relative / First cutting, growth height relative: control 100; for Observations (color): control normal green. An excerpt:
Lawn seed of the standard mixture Agrostis tenius (10%), Cynosurus cristatus (10%), Festuca rubra (15%), Lolium perenne (35%) and Poa praetensis (30%) was sown in a loam in large pots. The soil was fertilized with 1.5 g N as ammonium nitrate and 1 g P2 O5 as secondary potassium phosphate. After the grass had been cut twice, it was sprayed in conventional manner at a height of 4 cm with the active ingredients at various application rates. 19 days after treatment the growth height and dry substance content were determined. The treated grass was much shorter than the control, and produced a correspondingly lower amount of dry substance.
The prior art compound used for comparison purposes was maleic hydrazide (M; German 815,192).

Another test has as its system Cynodon dactylon. Description: Growth-regulating action, postemergence, greenhouse (Example 35, Table 1). Type of test: in vivo. The settings on record: for growth height relative: control 100. An excerpt: The vessels used for the experiments were plastic pots having a volume of 1,130 cm^3 (Table A) or paraffined paper cups having a volume of 170 cm^3 (Table B). The pots and cups were filled with a sandy loam. The seeds of the test plants-separated by species-were sown shallow. Preemergence treatment (soil treatment) was effected immediately after sowing and before germination of the seeds. Seeds lying on the surface came into contact with the active ingredients. Postemergence treatment (leaf treatment) took place at an average growth height of the plants (depending on the rate of growth) of from 6 to 10 cm. The substances were suspended, emulsified or dissolved in water as diluent and applied by means of fine nozzles. The vessels were kept in the greenhouse in a temperature range of 12° C. to 25° C., and were regularly sprinkler irrigated for the duration of the experiment. The observation period was 6 to 8 weeks.
Further experiments were carried out in the greenhouse under the condition described in Example 11. […] As the plants which were examined liked the warmth (Eupghorbia geniculate, Arachis hypogaea, Cynodon dactylon), they were kept at from 20°-30° C. Cynodon dactylon from seed was cut once and the young growth treated postemergence.

For the next test, the system named is oats. Description: Growth height of oats, greenhouse (Example 10). It counts as in vivo, oats (Flamingskrone). The settings on record: for Plant height relative: control 100. From the text: In the greenhouse, the four cereals wheat ("Opal" variety), rye ("Petkuser"), barley ("Villa") and oats ("Flamingskrone") were sown in plastic dishes 11.5 cm in diameter in a sandy loam adequately supplied with nutrients. The active ingredients were applied at various rates to the soil and to the leaves. When applied to the soil, the active ingredient were sprayed onto the surface of the soil on the day of sowing; in the case of leaf treatment, the leaves were sprayed in the usual manner at a growth height of the plants of 10 cm. During the 18 day growth period, the treated plants grew much more slowly than the untreated control, a fact later confirmed by measurements of the stem length. Measurements were taken of 100 plants from each series.
The prior art agent used for comparison purposes was N-2-chloroethyl-N,N,N-trimethylammonium chloride (CCC; German Printed Application DAS No. 1,294,734).

[1] abbreviates: Glycine max, 672 h, 3.0 kg/ha, read-out: Growth height relative.
Setting [2] is: Glycine max, 672 h, 6.0 kg/ha, read-out: Growth height relative.
Setting [3] is: Glycine max, 672 h, read-out: Growth height relative.

`Brc1cccc(N2N=NC3C4CC(C5N=NC45)C32)c1` (stereo not shown) [drawing 399]: the Growth height turned out to be 17.0 cm with soybeans (3.0 kg/ha, soil) and 16.0 cm in the test on soybeans (6.0 kg/ha, soil). Besides, the response vs control in vivo at 3000 g/ha in the test with soybeans (setting [1]) turned out to be 73.9%. In addition, the response vs control in vivo at 6000 g/ha with soybeans (setting [2]) was 69.6%.

Consider `Clc1ccc(N2N=NC3C4CC(C5N=NC45)C32)cc1` (stereo not shown) [drawing 393], for which the Growth height with soybeans (3.0 kg/ha, soil) turned out to be 15.0 cm; in the test with soybeans (6.0 kg/ha, soil) it was 14.0 cm. For the same compound, the response vs control in vivo at 3000 g/ha with soybeans (setting [1]) was 65.2%. In the test with soybeans (setting [2]), the response vs control in vivo at 6000 g/ha is 60.9%.

On to `Brc1ccc(N2N=NC3C4CC(C5N=NC45)C32)cc1` (stereo not shown) [drawing 379], for which the “First cutting, dry substance” value with grass or lawns (0.25 kg/ha) was 12.8 g; in the test with grass or lawns (0.5 kg/ha), 11.4 g; with grass or lawns (1.0 kg/ha) it was 8.4 g; in the test on grass or lawns (2.0 kg/ha) it was 6.3 g; with grass or lawns (4.0 kg/ha) it was 4.1 g. Further, the “First cutting, growth height” value in the test with grass or lawns (0.25 kg/ha) was 25.0 cm; in the test with grass or lawns (0.5 kg/ha), 24.0 cm; in the test with grass or lawns (1.0 kg/ha), 21.5 cm; in the test on grass or lawns (2.0 kg/ha) it was 18.0 cm; with grass or lawns (4.0 kg/ha) it was 12.5 cm. In addition, the “First cutting, dry substance relative” value with grass or lawns (0.25 kg/ha) is 102.4; in the test with grass or lawns (0.5 kg/ha) it was 91.2; in the test on grass or lawns (1.0 kg/ha), 67.2; with grass or lawns (2.0 kg/ha) it was 50.4; in the test with grass or lawns (4.0 kg/ha), 32.8. Also, the “First cutting, growth height relative” value worked out at 98.0 with grass or lawns (0.25 kg/ha); 94.1 with grass or lawns (0.5 kg/ha); 84.2 in the test on grass or lawns (1.0 kg/ha); 70.5 with grass or lawns (2.0 kg/ha); 49.0 in the test on grass or lawns (4.0 kg/ha). Also, the “Observations (color)” value in the test with grass or lawns (0.25 kg/ha) was “normal green”. Besides, in the test on grass or lawns (2.0 kg/ha, control 1.33), the “First cutting, chlorophyll content” value is listed as 1.40 g Ca + b/100 g TS.

Regarding `O=C(O)c1cc(I)cc(I)c1I` [T, 2,3,5-triiodobenzoic acid, reference compound], the Growth height in the test with soybeans (0.125 kg/ha) turned out to be 23.5 cm. This compound registered a Growth height in the test with soybeans (0.375 kg/ha) of 25.0 cm. The compound further showed a Growth height in the test on soybeans (0.750 kg/ha) of 23.0 cm. Also, in the test with soybeans (setting [3]), the response vs control in vivo at 125 g/ha stood at 102%, the response vs control in vivo at 375 g/ha was 109% and the response vs control in vivo at 750 g/ha was 100%.

Take `c1csc(N2C3C4CC(C5N=NC45)C32)n1` (stereo not shown): the Growth height with Cynodon dactylon (0.5 kg/ha) came to 8 cm; with Cynodon dactylon (1.0 kg/ha) it was 7 cm; with Cynodon dactylon (2.0 kg/ha), 6 cm. Besides, the growth height relative in the test with Cynodon dactylon (0.5 kg/ha) is 73; in the test with Cynodon dactylon (1.0 kg/ha), 64; with Cynodon dactylon (2.0 kg/ha), 54.

In the case of `Brc1ccccc1N1N=NC2C3CC(C4N=NC34)C21` (stereo not shown) [drawing 398], the Growth height was found to be 21.0 cm in the test with soybeans (3.0 kg/ha, soil) and 17.0 cm in the test with soybeans (6.0 kg/ha, soil). Further, the response vs control in vivo at 3000 g/ha in the test on soybeans (setting [1]) was found to be 91.3%. Moreover, in the test on soybeans (setting [2]), the response vs control in vivo at 6000 g/ha turned out to be 73.9%.

In the case of `FC(F)(F)c1ccc(Cl)c(N2N=NC3C4CC(C5N=NC45)C32)c1` (stereo not shown) [drawing 396], the Growth height in the test on soybeans (3.0 kg/ha, soil) was 17.5 cm; in the test on soybeans (6.0 kg/ha, soil) it was 13.5 cm. Moreover, in the test on soybeans (setting [1]), the response vs control in vivo at 3000 g/ha was 76.1%. Moreover, the response vs control in vivo at 6000 g/ha in the test with soybeans (setting [2]) worked out at 58.7%.

As for `Clc1ccc(N2N=NC3C4CC(C5N=NC45)C32)cc1` (stereo not shown) [drawing 378], the “First cutting, dry substance” value in the test on grass or lawns (0.25 kg/ha) is recorded as 10.7 g; with grass or lawns (0.5 kg/ha), 8.6 g; in the test on grass or lawns (1.0 kg/ha), 7.0 g; in the test on grass or lawns (2.0 kg/ha), 4.8 g; in the test on grass or lawns (4.0 kg/ha), 3.1 g. Also, the “First cutting, growth height” value in the test on grass or lawns (0.25 kg/ha) is 26.0 cm; in the test on grass or lawns (0.5 kg/ha), 24.0 cm; in the test on grass or lawns (1.0 kg/ha) it was 19.0 cm; in the test on grass or lawns (2.0 kg/ha) it was 16.0 cm; in the test on grass or lawns (4.0 kg/ha), 10.5 cm. In addition, the “First cutting, dry substance relative” value with grass or lawns (0.25 kg/ha) is 85.6; with grass or lawns (0.5 kg/ha) it was 68.8; in the test on grass or lawns (1.0 kg/ha), 56.0; in the test with grass or lawns (2.0 kg/ha) it was 38.4; in the test with grass or lawns (4.0 kg/ha), 24.8. In addition, the “First cutting, growth height relative” value came to 101.9 in the test with grass or lawns (0.25 kg/ha); 94.1 in the test on grass or lawns (0.5 kg/ha); 74.5 with grass or lawns (1.0 kg/ha); 62.7 in the test on grass or lawns (2.0 kg/ha); 41.1 with grass or lawns (4.0 kg/ha). The “Observations (color)” value in the test on grass or lawns (0.25 kg/ha) is reported as “normal green”; with grass or lawns (0.5 kg/ha) it was “normal green”; with grass or lawns (1.0 kg/ha), “normal green”; in the test on grass or lawns (2.0 kg/ha) it was “dark green”; with grass or lawns (4.0 kg/ha), “dark green”.

In the case of `Clc1ccc(N2N=NC3C4CC(C5NNC45)C32)cc1` (stereo not shown) [drawing 395], the Growth height was 13.5 cm in the test with soybeans (3.0 kg/ha, soil) and 12.5 cm with soybeans (6.0 kg/ha, soil). In addition, the response vs control in vivo at 3000 g/ha in the test with soybeans (setting [1]) turned out to be 58.7%. Further, the response vs control in vivo at 6000 g/ha in the test with soybeans (setting [2]) stood at 54.4%.

`Brc1ccc(N2N=NC3C4CC(C5N=NC45)C32)cc1` (stereo not shown) [drawing 397]: the Growth height with soybeans (3.0 kg/ha, soil) is reported as 14.0 cm; in the test with soybeans (6.0 kg/ha, soil), 14.0 cm. Also, in the test on soybeans (setting [1]), the response vs control in vivo at 3000 g/ha turned out to be 60.9%. Besides, the response vs control in vivo at 6000 g/ha in the test with soybeans (setting [2]) worked out at 60.9%.

On to `Brc1ccc(N2N=NC3C4CC(C5N=NC45)C32)cc1` (stereo not shown) [drawing 359], for which the Plant height is on record as 25.5 cm with oats (leaf, 0.125 kg/ha); 25.0 cm with oats (leaf, 0.5 kg/ha); 22.5 cm with oats (leaf, 1.0 kg/ha); 22.5 cm in the test with oats (leaf, 2.0 kg/ha); 22.0 cm in the test on oats (leaf, 4.0 kg/ha). Also, the Plant height relative was 91.1 in the test on oats (leaf, 0.125 kg/ha); 89.3 in the test with oats (leaf, 0.5 kg/ha); 80.4 in the test on oats (leaf, 1.0 kg/ha); 80.4 with oats (leaf, 2.0 kg/ha); 78.6 with oats (leaf, 4.0 kg/ha).

For `Clc1ccc(N2N=NC3C4CC(C5N=NC45)C32)cc1` (stereo not shown) [drawing 358], the Plant height in the test on oats (leaf, 0.125 kg/ha) was determined as 23.5 cm; in the test with oats (leaf, 0.5 kg/ha) it was 22.5 cm; in the test with oats (leaf, 1.0 kg/ha), 21.0 cm; in the test with oats (leaf, 2.0 kg/ha), 19.0 cm; with oats (leaf, 4.0 kg/ha), 17.0 cm. The Plant height relative was 83.9 in the test on oats (leaf, 0.125 kg/ha); 80.4 in the test with oats (leaf, 0.5 kg/ha); 75.0 in the test on oats (leaf, 1.0 kg/ha); 67.9 with oats (leaf, 2.0 kg/ha); 60.7 in the test with oats (leaf, 4.0 kg/ha).

On to `Clc1cccc(N2N=NC3C4CC(C5N=NC45)C32)c1` (stereo not shown) [drawing 394], for which the Growth height in the test with soybeans (3.0 kg/ha, soil) is reported as 17.5 cm; in the test on soybeans (6.0 kg/ha, soil), 14.5 cm. Also, the response vs control in vivo at 3000 g/ha in the test with soybeans (setting [1]) was found to be 76.1%. In the test on soybeans (setting [2]), the response vs control in vivo at 6000 g/ha is 63%.

`Brc1ccc(N2N=NC3C4CC(C5N=NC45)C32)cc1` (stereo not shown) [drawing 357]: the Plant height with oats (soil, 0.5 kg/ha) was determined as 28.0 cm; with oats (soil, 1.0 kg/ha), 26.5 cm; in the test on oats (soil, 2.0 kg/ha), 24.5 cm; in the test with oats (soil, 6.0 kg/ha), 15.5 cm. The Plant height relative was found to be 100 in the test with oats (soil, 0.5 kg/ha); 94.6 in the test with oats (soil, 1.0 kg/ha); 87.5 in the test with oats (soil, 2.0 kg/ha); 55.4 with oats (soil, 6.0 kg/ha).

Source of the values: US4257941A, “Polycyclic nitrogen-containing compounds” (BASF Aktiengesellschaft, priority 1976, dated 1981).
